One block for each compound: values may come before it.
Experiments:
[1] = Inhibition of rat FAO
[2] = Inhibition of human FAO
[3] = target: Carnitine O-palmitoyltransferase 1, muscle isoform (Homo sapiens) (UniProt Q92523); experiment: Increase in muscle CPT1 activity expressed in yeast mitochondrial extracts; settings: Muscle tissue
Mus musculus [4] = experiment: Induction of weight loss in DIO mouse at 15 mg/kg, ip administered single dose measured 20 hrs post dose (reference value: 2 %); format: functional; settings: route intraperitoneal
Hepatocyte = experiment: Increase in palmitate oxidation rat hepatocytes a at 80 uM; format: functional
[5] = target: Carnitine O-palmitoyltransferase 1, liver isoform (Rattus norvegicus) (UniProt P32198); experiment: Increase in CPT1 activity in rat hepatocytes using [3H]carnitine by radiometric assay; format: cell-based; settings: Hepatocyte
[6] = target: T1, Carnitine O-palmitoyltransferase 1, liver isoform (Homo sapiens) (UniProt P50416); experiment: Increase in liver CPT1 activity expressed in yeast mitochondrial extracts
T1 sequence (whole entry): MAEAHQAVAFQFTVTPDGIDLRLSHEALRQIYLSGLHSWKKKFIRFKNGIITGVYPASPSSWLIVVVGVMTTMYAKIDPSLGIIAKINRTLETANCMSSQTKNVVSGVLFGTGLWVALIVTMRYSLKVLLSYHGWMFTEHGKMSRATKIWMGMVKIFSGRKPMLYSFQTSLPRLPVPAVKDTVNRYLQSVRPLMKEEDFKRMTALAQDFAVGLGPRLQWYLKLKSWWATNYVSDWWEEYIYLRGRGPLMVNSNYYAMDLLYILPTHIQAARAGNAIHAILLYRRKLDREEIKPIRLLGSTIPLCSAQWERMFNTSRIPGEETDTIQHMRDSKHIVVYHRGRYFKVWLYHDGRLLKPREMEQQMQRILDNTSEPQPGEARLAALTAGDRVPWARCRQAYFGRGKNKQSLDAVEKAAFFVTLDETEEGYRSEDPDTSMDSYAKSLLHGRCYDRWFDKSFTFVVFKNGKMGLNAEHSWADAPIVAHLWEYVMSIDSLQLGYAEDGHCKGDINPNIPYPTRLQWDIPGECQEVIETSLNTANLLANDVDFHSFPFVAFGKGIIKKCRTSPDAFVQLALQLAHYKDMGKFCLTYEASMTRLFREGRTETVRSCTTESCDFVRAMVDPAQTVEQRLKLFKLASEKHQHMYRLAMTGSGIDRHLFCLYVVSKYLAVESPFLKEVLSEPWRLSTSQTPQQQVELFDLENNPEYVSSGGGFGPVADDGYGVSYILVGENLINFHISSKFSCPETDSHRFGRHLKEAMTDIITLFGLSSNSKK

Mus musculus [7] = experiment: Increase in energy production in DIO mouse at 15 mg/kg, ip administered single dose; format: functional; settings: route intraperitoneal
[8] = target: T2, Carnitine O-palmitoyltransferase 2, mitochondrial (Rattus norvegicus, UniProt P18886); experiment: Inhibition of CPT2 in 24 hrs fasted rat liver mitochondria assessed as palmitoylcarnitine oxidation by radiometry
T2 sequence (P18886 whole entry): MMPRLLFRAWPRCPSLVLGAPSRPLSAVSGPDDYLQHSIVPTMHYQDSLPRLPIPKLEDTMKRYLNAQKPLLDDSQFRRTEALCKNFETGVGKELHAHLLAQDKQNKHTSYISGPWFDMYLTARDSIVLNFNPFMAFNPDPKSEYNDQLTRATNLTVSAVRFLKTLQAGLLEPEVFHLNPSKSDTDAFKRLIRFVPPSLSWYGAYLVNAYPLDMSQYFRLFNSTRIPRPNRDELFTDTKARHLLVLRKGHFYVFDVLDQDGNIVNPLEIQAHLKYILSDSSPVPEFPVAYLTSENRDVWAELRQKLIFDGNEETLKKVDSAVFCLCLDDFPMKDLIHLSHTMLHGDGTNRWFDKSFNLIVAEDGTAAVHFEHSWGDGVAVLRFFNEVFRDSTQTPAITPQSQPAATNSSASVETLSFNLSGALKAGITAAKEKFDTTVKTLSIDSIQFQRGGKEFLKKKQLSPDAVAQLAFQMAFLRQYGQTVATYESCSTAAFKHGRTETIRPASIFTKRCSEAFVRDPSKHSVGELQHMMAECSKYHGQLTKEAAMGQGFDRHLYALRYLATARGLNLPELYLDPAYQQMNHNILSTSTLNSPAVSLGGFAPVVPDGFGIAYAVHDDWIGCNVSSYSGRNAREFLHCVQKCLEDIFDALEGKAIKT

Rattus norvegicus [9] = experiment: Increase in plasma FFA level in fasted Wistar rat at 16 mg/kg, ip; format: functional; settings: route intraperitoneal
[10] = target: T3, Carnitine O-palmitoyltransferase 2, mitochondrial (Homo sapiens, UniProt P23786); experiment: Inhibition of human CPT2
T3 sequence (P23786 whole entry): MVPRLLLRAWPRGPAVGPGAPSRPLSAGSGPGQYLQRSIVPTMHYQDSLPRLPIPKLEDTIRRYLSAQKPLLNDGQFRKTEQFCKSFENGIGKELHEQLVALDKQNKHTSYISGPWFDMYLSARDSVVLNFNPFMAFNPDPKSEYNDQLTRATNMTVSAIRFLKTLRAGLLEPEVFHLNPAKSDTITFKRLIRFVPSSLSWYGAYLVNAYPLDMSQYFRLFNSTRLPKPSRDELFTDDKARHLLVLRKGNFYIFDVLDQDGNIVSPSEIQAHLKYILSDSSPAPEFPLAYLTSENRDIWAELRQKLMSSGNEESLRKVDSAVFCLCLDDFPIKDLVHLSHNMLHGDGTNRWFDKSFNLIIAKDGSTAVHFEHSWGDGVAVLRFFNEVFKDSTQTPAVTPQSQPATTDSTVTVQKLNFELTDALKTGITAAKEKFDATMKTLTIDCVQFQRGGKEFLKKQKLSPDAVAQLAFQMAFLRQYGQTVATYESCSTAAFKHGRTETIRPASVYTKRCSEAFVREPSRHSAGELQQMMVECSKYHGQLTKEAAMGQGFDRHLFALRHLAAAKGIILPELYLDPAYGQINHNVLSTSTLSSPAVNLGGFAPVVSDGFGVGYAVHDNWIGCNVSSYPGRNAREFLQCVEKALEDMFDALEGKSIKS

[11] = target: T4, Carnitine O-palmitoyltransferase 1, liver isoform (Homo sapiens, UniProt P50416); experiment: Inhibition of human CPT1A
T4 sequence (P50416 whole entry): T1 sequence (whole entry)

Rattus norvegicus [12] = experiment: Reduction in palmitate oxidation in rat liver mitochondria at 18 mg/kg, ip administered as single dose measured 24 hrs post dose; format: functional; set-up: scale not given: the % may be the effect or the level left; settings: route intraperitoneal
[13] = Inhibition of carnitine palmitoyltransferase in 24 hrs fasted rat liver mitochondria assessed as palmitoylcarnitine oxidation by radiometry
Rattus norvegicus [14] = experiment: Increase in plasma TG level in fasted Wistar rat at 16 mg/kg, ip; format: functional; settings: route intraperitoneal
Rattus norvegicus [15] = experiment: Reduction in plasma glucose level in fasted Wistar rat at 16 mg/kg, ip; format: functional; set-up: scale not given: the % may be the effect or the level left; settings: route intraperitoneal
[16] = Inhibition of carnitine palmitoyltransferase in 20 hrs fasted Sprague-Dawley rat liver mitochondria assessed as palmitate oxidation by radiometry
Rattus norvegicus [17] = experiment: Increase in plasma VLDL level in fasted Wistar rat at 16 mg/kg, ip; format: functional; settings: route intraperitoneal
[18] = Inhibition of carnitine palmitoyltransferase in 20 hrs fasted Sprague-Dawley rat liver mitochondria assessed as palmitoylcarnitine oxidation by radiometry
[19] = Inhibition of carnitine palmitoyltransferase in rat mitochondria
[20] = target: T2, Carnitine O-palmitoyltransferase 2, mitochondrial; experiment: Inhibition of rat CPT2
[21] = target: T5, Carnitine O-palmitoyltransferase 1, muscle isoform (Homo sapiens, UniProt Q92523); experiment: Inhibition of human CPT1B
T5 sequence (Q92523 whole entry): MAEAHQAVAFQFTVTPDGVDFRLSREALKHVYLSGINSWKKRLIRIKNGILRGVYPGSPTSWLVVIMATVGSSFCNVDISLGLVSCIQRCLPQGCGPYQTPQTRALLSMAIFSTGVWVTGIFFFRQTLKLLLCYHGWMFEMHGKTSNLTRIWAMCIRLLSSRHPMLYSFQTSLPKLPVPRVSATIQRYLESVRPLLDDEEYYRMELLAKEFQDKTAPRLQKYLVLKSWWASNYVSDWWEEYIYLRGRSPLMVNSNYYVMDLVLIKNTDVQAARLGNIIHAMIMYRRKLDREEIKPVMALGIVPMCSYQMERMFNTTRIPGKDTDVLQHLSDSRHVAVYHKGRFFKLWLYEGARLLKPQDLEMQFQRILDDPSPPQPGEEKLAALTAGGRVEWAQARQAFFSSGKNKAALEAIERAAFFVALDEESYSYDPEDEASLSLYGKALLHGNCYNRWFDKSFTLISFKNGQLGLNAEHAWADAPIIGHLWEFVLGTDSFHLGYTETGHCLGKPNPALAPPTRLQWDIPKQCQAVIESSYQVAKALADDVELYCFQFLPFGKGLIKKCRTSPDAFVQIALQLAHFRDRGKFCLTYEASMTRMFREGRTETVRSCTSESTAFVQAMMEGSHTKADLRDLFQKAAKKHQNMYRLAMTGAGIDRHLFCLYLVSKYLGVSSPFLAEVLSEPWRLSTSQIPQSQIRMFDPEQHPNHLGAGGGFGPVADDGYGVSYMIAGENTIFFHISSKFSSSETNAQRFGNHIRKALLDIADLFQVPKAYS

Rattus norvegicus [22] = experiment: Increase in plasma LDL level in fasted Wistar rat at 16 mg/kg, ip; format: functional; settings: route intraperitoneal
[23] = target: T2, Carnitine O-palmitoyltransferase 2, mitochondrial; experiment: Inhibition of rat CPT2 in rat mitochondria
[24] = target: T6, Carnitine O-palmitoyltransferase 1, liver isoform (Rattus norvegicus, UniProt P32198); experiment: Inhibition of rat CPT1 in rat mitochondria
T6 sequence (P32198 whole entry): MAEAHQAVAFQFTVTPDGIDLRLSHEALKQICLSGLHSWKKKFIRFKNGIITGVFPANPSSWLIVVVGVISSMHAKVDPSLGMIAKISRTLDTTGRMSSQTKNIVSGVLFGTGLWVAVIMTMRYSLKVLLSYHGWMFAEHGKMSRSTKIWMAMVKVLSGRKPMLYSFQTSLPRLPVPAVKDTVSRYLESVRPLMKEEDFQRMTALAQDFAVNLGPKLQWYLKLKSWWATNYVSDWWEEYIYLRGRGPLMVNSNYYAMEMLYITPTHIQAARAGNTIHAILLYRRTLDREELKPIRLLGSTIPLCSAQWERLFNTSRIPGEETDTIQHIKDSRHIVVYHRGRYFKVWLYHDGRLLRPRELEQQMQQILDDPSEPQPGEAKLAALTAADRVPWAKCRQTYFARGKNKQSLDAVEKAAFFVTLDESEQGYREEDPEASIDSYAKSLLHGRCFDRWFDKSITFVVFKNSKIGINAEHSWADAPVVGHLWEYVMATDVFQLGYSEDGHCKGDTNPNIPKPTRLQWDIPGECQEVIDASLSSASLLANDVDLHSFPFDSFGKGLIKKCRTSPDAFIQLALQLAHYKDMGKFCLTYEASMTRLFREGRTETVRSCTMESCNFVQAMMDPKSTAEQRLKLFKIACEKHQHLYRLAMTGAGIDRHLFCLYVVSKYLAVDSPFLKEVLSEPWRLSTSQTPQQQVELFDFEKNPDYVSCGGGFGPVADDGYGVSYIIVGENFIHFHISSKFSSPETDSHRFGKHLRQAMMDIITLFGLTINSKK

[25] = Inhibition of FAO
[26] = Inhibition of carnitine palmitoyltransferase in 18 hr fasted rat liver homogenates; format: tissue-based
[27] = Inhibition of carnitine palmitoyltransferase in 18 hr fasted rat hepatocytes; format: cell-based; settings: hepatocyte
[28] = target: T4, Carnitine O-palmitoyltransferase 1, liver isoform; experiment: Inhibition of CPT1 in liver mitochondria

Compound: C=C1C(=O)O[C@H](CCCCCCCC)[C@H]1C(=O)O
IC50 [1]: > 100 µM
IC50 [2]: 21.9 µM
Activity [3]: 20%
Activity (Mus musculus [4]): 4.4%
Activity (Hepatocyte): 750%
Activity [5]: 250%
Activity [6]: 20%
Activity (Mus musculus [7]): 32.9%

Compound: COc1cccc2c1C(=O)c1c(O)c3c(c(O)c1C2=O)C[C@@](O)(C(=O)CO)C[C@@H]3O[C@H]1C[C@H](N)[C@H](O)[C@H](C)O1 [DOXORUBICIN]
IC50 [23]: > 100 µM
IC50 [24]: 250 µM

Compound: COc1ccc(CN2CCN(CCCSc3cc(C(C)(C)C)c(O)c(C(C)(C)C)c3)CC2)c(OC)c1OC
IC50 [28]: 51 µM

Second part, led by results:

IC50 [8]: 0.8 µM
IC50 [10]: 3.9 µM
IC50 [11]: 76.4 µM
IC50 [13]: 5.4 µM
IC50 [16]: 3.2 µM
IC50 [18]: 12 µM
IC50 [19]: 3.2 µM
IC50 [20]: 5.1 µM
IC50 [21]: > 100 µM
Compound: C[N+](C)(C)C[C@H](N)CC(=O)[O-]
Activity (Rattus norvegicus [9]): 244%
Activity (Rattus norvegicus [12]): 68%
Activity (Rattus norvegicus [14]): 684%
Activity (Rattus norvegicus [15]): 16%
Activity (Rattus norvegicus [17]): 1034%
Activity (Rattus norvegicus [22]): 88%

IC50 [1]: 0.27 µM
IC50 [2]: 2.8 µM
IC50 [10]: 0.14 µM
IC50 [11]: 2.67 µM
IC50 [25]: 0.05 µM
IC50 [26]: 1.3 µM
IC50 [27]: 1.2 µM
IC50 [21]: 21.7 µM
Compound: CCCCCCCCCCCCCCCC(=O)N[C@H](CC(=O)[O-])C[N+](C)(C)C [PALMITOYLAMINOCARNITINE]

Source: ChEMBL document CHEMBL2216752, “Carnitine palmitoyltransferase (CPT) modulators: a medicinal chemistry perspective on 35 years of research” (J Med Chem, 2011)
